System: TNF-α
Test: Whole bovine blood assay, LPS-induced TNF-α
Type: cell-based
Conditions: fresh whole bovine blood, LPS stimulant; top drug concentration 250 μM
Description: Whole Blood Assay-Fresh whole bovine blood samples were collected into heparinized vacutainer tubes. Assay plates were prepared with 25 μL of drug diluted in PBS at varying concentration in 96 round bottom wells, then 225 μL of blood was added and plates incubated at 37° C. for 4 hours. Cells were stimulated with LPS (or PBS for controls) by adding 25 μL to the plates at a final concentration of 1 μg/mL and incubated at 37° C. for 18 hours. To collect plasma, plates were centrifuged at 2,000×g for 10 minutes and 100 μL of supernatant was transferred to a 96 well polypropylene plate that was sealed and stored at −80° C. Samples were assayed for cytokines using the Meso Scale Discovery (MSD) platform (described below). This same MSD platform was used to assess cytokines in the plasma collected directly from drug treated animals.
Cytokine Detection—An MSD U-Plex cytokine assay was developed following the MSD U-Plex protocol guide and included biotinylated capture antibodies against: bovine Interleukin (IL)-1β (Biorad), bovine IL-6 (R&D Systems) and bovine tumor necrosis factor (TNF)-α (R&D Systems). […] Assay calibrators (Kingfisher) were diluted to a concentration of […] in control lithium heparin plasma, followed by 4-fold serial dilutions into plasma. […] Antibodies were used at the following concentrations: anti-IL-1β at 1 μg/mL, anti-IL-6 at 1 μg/mL and anti-TNF-α at 0.5 μg/mL. Cytokines were quantified according to manufacturer's instructions using a chemiluminescent readout. In brief, 0.5 mL of all biotinylated antibodies were diluted to 10 μg/mL with Diluent 100 and paired to their respective linkers by adding 750 μL of supplied Linker solution and incubated for 30 minutes followed by addition of Stop solution for another 30 minutes. The linked antibodies were then diluted 10-fold into Stop solution. Plates were coated by adding 50 μL of antibody solutions per well and incubated covered and shaking for 1 hour at room temperature. Plates were washed three times with PBS/Tween20 prior to samples or standards being added at 30 μL per well and incubated as above. Plates were washed three times before detection antibodies were added along with 2% goat and rabbit serum to block and incubated same as above. Plates were washed a further three times before addition of 150 μL 2X Read buffer and read immediately on the SI6000 instrument (MSD). For soluble protein levels, a BCA protein kit (Thermofisher) was used. The cytokine concentrations (pg/mL) were normalized to the total protein levels for each sample. [Bassel et. al., BMC Veterinary Research (2020) 16:168]
Therefore, a fresh whole bovine blood assay was developed with LPS as a stimulant (TLR-4 agonist) and with IL-1β and TNF-α as the read-out. Compounds of the invention were evaluated against a positive control for their ability to inhibit LPS-induced IL-1β and TNF-α as an overall evaluation of relative potency and modulation of target pathways.
TNFα is a cell signaling protein, cytokine, that plays a key role in both acute and chronic inflammation. In the bovine whole blood in vitro screening assay the inhibition of TNFα as induced by stimulation by lipopolysaccharide (LPS) and as measured by half the maximal inhibitory concentration (IC50) is recognized as the primary biomarker of immunomodulation potency upon pretreatment with the compounds of the invention. IL-1 B is a mediator of the inflammation response and is involved in a number of cellular activities including proliferation, differentiation and apoptosis. IL-1ß is also released upon cellular stress or cytotoxicity or upon TLR stimulation. […] In order to estimate a therapeutic index from the in vitro assay a differential between the TNFα IC50 (immunomodulation potency) versus the perceived cellular toxicity concentration (IL-1β release or overstimulation) was utilized.

IC50 [µM] | SMILES
23 | CC[C@H]1OC(=O)[C@H](C)[C@@H](O[C@H]2C[C@@](C)(OC)[C@](O)(CN3CCc4ccccc4C3)[C@H](C)O2)[C@H](C)[C@@H](O[C@@H]2O[C@H](C)C[C@H](N(C)S(=O)(=O)c3ccc(Cl)cc3)[C@H]2O)[C@](C)(O)C[C@@H](C)CN[C@H](C)[C@@H](O)[C@]1(C)O [Example C-10]
14 | CC[C@H]1OC(=O)[C@H](C)[C@@H](O[C@H]2C[C@@](C)(OC)[C@](O)(CN3CCCCC3)[C@H](C)O2)[C@H](C)[C@@H](O[C@@H]2O[C@H](C)C[C@H](N(C)S(=O)(=O)Nc3ccc(Br)cc3)[C@H]2O)[C@](C)(O)C[C@@H](C)CN[C@H](C)[C@@H](O)[C@]1(C)O [Example C-29]
9 | CC[C@H]1OC(=O)[C@H](C)[C@@H](O[C@H]2C[C@@](C)(OC)[C@](O)(CN3CCCCC3)[C@H](C)O2)[C@H](C)[C@@H](O[C@@H]2O[C@H](C)C[C@H](N(C)S(=O)(=O)Nc3ccc(I)cc3)[C@H]2O)[C@](C)(O)C[C@@H](C)CN[C@H](C)[C@@H](O)[C@]1(C)O [Example C-30]

More lines, now with the values behind:

SMILES | IC50 [µM]
CC[C@H]1OC(=O)[C@H](C)[C@@H](O[C@H]2C[C@@](C)(OC)[C@](O)(CNC3CCCC3)[C@H](C)O2)[C@H](C)[C@@H](O[C@@H]2O[C@H](C)C[C@H](N(C)S(=O)(=O)c3ccc(Cl)cc3)[C@H]2O)[C@](C)(O)C[C@@H](C)CN[C@H](C)[C@@H](O)[C@]1(C)O [Example B-22] | 9
CC[C@H]1OC(=O)[C@H](C)[C@@H](O[C@H]2C[C@@](C)(OC)[C@](O)(CNCC3CC3)[C@H](C)O2)[C@H](C)[C@@H](O[C@@H]2O[C@H](C)C[C@H](N(C)S(=O)(=O)c3ccc(Cl)cc3)[C@H]2O)[C@](C)(O)C[C@@H](C)CN[C@H](C)[C@@H](O)[C@]1(C)O [Example B-24] | 10
CC[C@H]1OC(=O)[C@H](C)[C@@H](O[C@H]2C[C@@](C)(OC)[C@](O)(CNc3ccccc3)[C@H](C)O2)[C@H](C)[C@@H](O[C@@H]2O[C@H](C)C[C@H](N(C)S(=O)(=O)c3ccc(Cl)cc3)[C@H]2O)[C@](C)(O)C[C@@H](C)CN[C@H](C)[C@@H](O)[C@]1(C)O [Example B-32] | 23
CC[C@H]1OC(=O)[C@H](C)[C@@H](O[C@H]2C[C@@](C)(OC)[C@](O)(CNc3ccccc3)[C@H](C)O2)[C@H](C)[C@@H](O[C@@H]2O[C@H](C)C[C@H](N(C)S(=O)(=O)Nc3ccc(C(F)(F)F)cc3)[C@H]2O)[C@](C)(O)C[C@@H](C)CN[C@H](C)[C@@H](O)[C@]1(C)O [Example B-64] | 8
CC[C@H]1OC(=O)[C@H](C)[C@@H](O[C@H]2C[C@@](C)(OC)[C@](O)(CNCCC3CCOCC3)[C@H](C)O2)[C@H](C)[C@@H](O[C@@H]2O[C@H](C)C[C@H](N(C)S(=O)(=O)Nc3ccc(C(F)(F)F)cc3)[C@H]2O)[C@](C)(O)C[C@@H](C)CN[C@H](C)[C@@H](O)[C@]1(C)O [Example B-66] | 30
CC[C@H]1OC(=O)[C@H](C)[C@@H](O[C@H]2C[C@@](C)(OC)[C@](O)(CNCCCOC)[C@H](C)O2)[C@H](C)[C@@H](O[C@@H]2O[C@H](C)C[C@H](N(C)S(=O)(=O)Nc3ccc(C(F)(F)F)cc3)[C@H]2O)[C@](C)(O)C[C@@H](C)CN[C@H](C)[C@@H](O)[C@]1(C)O [Example B-78] | 21
CCOCCNC[C@]1(O)[C@H](C)O[C@@H](O[C@H]2[C@H](C)[C@@H](O[C@@H]3O[C@H](C)C[C@H](N(C)S(=O)(=O)Nc4ccc(C(F)(F)F)cc4)[C@H]3O)[C@](C)(O)C[C@@H](C)CN[C@H](C)[C@@H](O)[C@](C)(O)[C@@H](CC)OC(=O)[C@@H]2C)C[C@@]1(C)OC [Example B-83] | 30
CC[C@H]1OC(=O)[C@H](C)[C@@H](O[C@H]2C[C@@](C)(OC)[C@](O)(CNCCOC)[C@H](C)O2)[C@H](C)[C@@H](O[C@@H]2O[C@H](C)C[C@H](N(C)S(=O)(=O)Nc3ccc(C(F)(F)F)cc3)[C@H]2O)[C@](C)(O)C[C@@H](C)CN[C@H](C)[C@@H](O)[C@]1(C)O [Example B-84] | 51

From patent US20250236616A1, “IMMUNOMODULATING AZALIDES” (Zoetis Services LLC, priority 2021, published 2025)
